Results: patent publication US9284283B2, “Macrocyclic compounds for modulating IL-17” (ENSEMBLE THERAPEUTICS CORPORATION, priority 2012, dated 2016)
pIC50, pKd: −log10 of the molar value.

How the values were obtained:
IL17A = biological target: T1, IL17A (Homo sapiens, UniProt Q16552); assay: Surface Plasmon Resonance (SPR) analysis of compound interactions with IL17A; details: SPR binding to IL17A
T1 sequence (Q16552 24-155): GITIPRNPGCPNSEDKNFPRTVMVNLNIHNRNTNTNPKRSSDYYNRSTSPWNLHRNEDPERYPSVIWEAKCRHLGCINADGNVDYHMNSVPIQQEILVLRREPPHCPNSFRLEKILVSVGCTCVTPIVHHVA
In short: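 His-tagged IL17A captured on a Ni-NTA chip; five 2- or 3-fold compound dilutions from 50 μM injected for 180 s, 120 s dissociation, in HEPES-saline buffer with 0.5% DMSO. Baseline-subtracted sensorgrams fitted 1:1 for ka, kd and KD; Kd also derived from binding extent per concentration.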

[1] = biological target: T2, biotinylated human IL-17 (binding to IL17R/Fc) (Homo sapiens, UniProt Q16552); assay: IL-17 competition ELISA II (captured IL17R/Fc, biotinylated IL-17)
T2 construct: purchased R&D Systems 317-ILB (IL-17, biotinylated); 177-IR (IL17R/Fc)
T2 sequence (Q16552 20-155 limits assumed): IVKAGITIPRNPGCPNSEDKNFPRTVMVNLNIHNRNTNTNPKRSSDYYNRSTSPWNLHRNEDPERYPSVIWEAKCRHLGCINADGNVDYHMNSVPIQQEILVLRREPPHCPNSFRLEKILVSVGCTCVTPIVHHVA
In short: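 Competition read-out: absorbance at 450 nm after streptavidin-HRP/TMB detection, fitted to a 4-parameter logistic model bounded by no-competitor and blank wells to give IC50. Compound was serially diluted 5-fold from 1 μM alongside 20 nM (stock) biotinylated IL-17 on IL17R/Fc (10 nM) captured via goat anti-human IgG, 30 min at room temperature.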

SMILES | pKd (IL17A) | pIC50 [1]
COC(=O)[C@@H]1CCCCNC(=O)CNC(=O)[C@@H](Cc2ccc(NC(=O)[C@H](Cc3ccccc3Cl)NC(=O)c3ccccc3)cc2)NC(=O)CC2(CCCC2)CC(=O)N1 [Compound 144] | > 7.00 | –
COC(=O)[C@@H]1CCCCNC(=O)CNC(=O)[C@@H](Cc2ccc(NC(=O)[C@H](Cc3ccccc3Cl)NC(=O)Cc3ccccc3)cc2)NC(=O)CC2(CCCC2)CC(=O)N1 [Compound 143] | > 7.00 | –
O=C1CNC(=O)[C@@H](Cc2ccc(NC(=O)[C@H](Cc3ccccc3Cl)NC(=O)Cc3ccccn3)cc2)NC(=O)CC2(CCCC2)CC(=O)NCCCCCN1 [Compound 226] | > 7.00 | > 7.00
COC(=O)[C@@H]1CCCCNC(=O)CCCNC(=O)[C@@H](Cc2ccc(NC(=O)[C@H](Cc3ccccc3F)NC(=O)Cc3ccccc3)cc2)NC(=O)CC2(CCCC2)CC(=O)N1 [Compound 106] | 6.00 to 7.00 | –

Results, then the compound that gave them:

pKd (IL17A) | pIC50 [1] | SMILES
> 7.00 | – | O=C1CNC(=O)[C@@H](Cc2ccc(NC(=O)[C@H](Cc3ccc(Cl)cc3Cl)NC(=O)Cc3ccc(O)cc3)cc2)NC(=O)CC2(CCCC2)CC(=O)NCCCCCN1 [Compound 191]
> 7.00 | > 7.00 | O=C1CNC(=O)[C@@H](Cc2ccc(NC(=O)[C@@H](NC(=O)Cc3ccccc3)C3CCCCC3)cc2)NC(=O)CC2(CCCC2)CC(=O)NCCCCCN1 [Compound 186]
> 7.00 | > 7.00 | O=C1CNC(=O)[C@@H](Cc2ccc(NC(=O)[C@H](Cc3ccccc3Cl)NC(=O)c3cccnc3)cc2)NC(=O)CC2(CCCC2)CC(=O)NCCCCCN1 [Compound 194]
> 7.00 | – | O=C1CNC(=O)[C@@H](Cc2ccc(NC(=O)[C@H](Cc3ccccc3Cl)NC(=O)Cc3ccccc3)cc2)NC(=O)CC2(CCCC2)CC(=O)NCCCCCN1 [Compound 159]
> 7.00 | – | O=C1CNC(=O)[C@@H](Cc2ccc(NC(=O)[C@H](Cc3ccc(Cl)cc3Cl)NC(=O)Cc3ccccc3)cc2)NC(=O)CC2(CCCC2)CC(=O)NCCCCCN1 [Compound 185]
